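How tested: cells in 96-well plates exposed to compound for 48 hours at five concentrations. The concentration for full growth arrest is given as TGI.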
Legend:
Assay in all cases: DTP human tumour cell line panel, 48 h
TK-10 renal = tested on: TK-10 renal
OVCAR-5 ovarian = tested on: OVCAR-5 ovarian
OVCAR-3 ovarian = tested on: OVCAR-3 ovarian
HOP-62 NSCLC = tested on: HOP-62 NSCLC
SK-MEL-28 melanoma = tested on: SK-MEL-28 melanoma
UO-31 renal = tested on: UO-31 renal
SW-620 colon = tested on: SW-620 colon
SK-MEL-5 melanoma = tested on: SK-MEL-5 melanoma
COLO 205 colon = tested on: COLO 205 colon
SF-268 CNS = tested on: SF-268 CNS

| SMILES | TGI (TK-10 renal) | TGI (OVCAR-5 ovarian) | TGI (OVCAR-3 ovarian) | TGI (HOP-62 NSCLC) | TGI (SK-MEL-28 melanoma) | TGI (UO-31 renal) | TGI (SW-620 colon) | TGI (SK-MEL-5 melanoma) | TGI (COLO 205 colon) | TGI (SF-268 CNS) |
| --- | --- | --- | --- | --- | --- | --- | --- | --- | --- | --- |
| COc1ccc(C(O)CC(O)(C(F)(F)F)C(F)(F)F)cc1 (stereo not given) | > 100 µM | 83.9 µM | 69.8 µM | > 100 µM | > 100 µM | > 100 µM | > 100 µM | 36.2 µM | 33.8 µM | > 100 µM |
| NCCOCC(N)C(=O)O (stereo not given) | > 100 µM | > 100 µM | > 100 µM | > 100 µM | > 100 µM | > 100 µM | > 100 µM | > 100 µM | > 100 µM | > 100 µM |
| O=C(/C=C/c1cccs1)c1ccccc1Cl | 32.3 µM | 28.9 µM | 28.2 µM | 32.1 µM | 38.8 µM | 17.2 µM | 40.9 µM | 32.5 µM | 38.6 µM | 26.4 µM |
| CSc1ccc(/C=C2\N=C(c3ccccc3)N(/N=C/c3cc4cc(C)ccc4nc3Cl)C2=O)cc1 | 33.5 µM | 74.9 µM | 48.7 µM | > 100 µM | 37.6 µM | 33.4 µM | > 100 µM | 32.9 µM | 39.4 µM | 47.6 µM |
| CN1C(=O)C(O)CC1c1cccc(C(F)(F)F)c1 (stereo not given) | > 100 µM | > 100 µM | > 100 µM | > 100 µM | > 100 µM | > 100 µM | > 100 µM | > 100 µM | > 100 µM | > 100 µM |
| CS(=O)(=O)NC12CCC(c3ccccc31)c1ccccc12 | > 100 µM | > 100 µM | > 100 µM | > 100 µM | > 100 µM | > 100 µM | > 100 µM | > 100 µM | > 100 µM | > 100 µM |
| CCOC(=O)C(=O)C(=O)NN(C)C1=NCCN1 | > 100 µM | > 100 µM | > 100 µM | > 100 µM | > 100 µM | > 100 µM | > 100 µM | > 100 µM | > 100 µM | > 100 µM |
| Cc1ccc(S(=O)(=O)n2cc(C#N)c(C#N)c2)cc1 | > 100 µM | 81.2 µM | 46.2 µM | 68.8 µM | 30.8 µM | 72.2 µM | 80 µM | 42 µM | 68.2 µM | 69.2 µM |
| CCCNc1ncnc2[nH]ncc12 | > 100 µM | > 100 µM | > 100 µM | > 100 µM | > 100 µM | > 100 µM | > 100 µM | > 100 µM | > 100 µM | > 100 µM |
| S=C(NCc1ccccc1)N/N=C/c1ccccn1 | > 100 µM | > 100 µM | > 100 µM | 71.5 µM | > 100 µM | 21 µM | > 61.4 µM | > 93.6 µM | > 100 µM | > 91.4 µM |
| O=c1cc(NCc2ccncc2)[nH]c(=O)[nH]1 | > 100 µM | > 100 µM | > 100 µM | > 100 µM | > 100 µM | > 100 µM | > 100 µM | > 100 µM | > 100 µM | > 100 µM |

From PubChem BioAssay (NCI)
